Reference: patent US12410124B2 (priority 2019, dated 2025)
Read-outs that look alike come from different tables or passages of the source.

Tests used:
primary glial cells = assay: Inhibition of the NO release of primary glial cells induced by LPS; type: cell-based, rat; conditions: for inhibition at 2 µM / inhibition at 5 µM / inhibition at 10 µM / inhibition at 20 µM: Rattus norvegicus, Glial cell, read-out: NO inhibition (%)
Text: Lipopolysaccharide (LPS) is a main component of the cell wall of Gram-negative bacteria. It is a potent inflammatory factor that can directly activate gliocytes, and the activated gliocytes secrete a large amount of inflammation mediators such as tumor necrosis factor, interleukin, and nitric oxide, thus causing inflammatory reactions and oxidative stress reactions and eventually leading to neuronal denaturation and death. In recent years, the targeted injection of LPS into rat substantia nigra or striatum to induce neuroinflammation can successfully establish PD models, which can simulate most of the clinical manifestations and pathological features of PD, and are used for the study on the neuroinflammation mechanism associated with PD. LPS-induced primary glial cell PD inflammation model is suitable for the preliminary anti-neuroinflammation screening for neuroprotective agents. LPS is used to directly activate primary glial cells to simulate the pathogenesis mechanism of neuroinflammation, and the inhibitory activity of the target compounds on the inflammatory response of primary glial cells can be investigated.
The materials were taken from the brain tissue of fetal rat, for primary glial cell culture. At 7 to 10 days of the culture, LPS was added for the activation of nitric oxide (NO) release in glial cells. When a target compound was added, the reduction value for NO content in the cell culture medium was measured, to evaluate the anti-neuroinflammation activity of the compound. The experiment included blank control group, LPS model group, positive control group (caffeic acid phenethyl ester, CAPE), prototype control group (styryl sulfone compounds 3B, 3C, 3D, and 3G, the structures of which compounds are shown as above), and target compound group.

midbrain p-α-s = assay: Midbrain p-α-s protein expression in MPTP Parkinson's disease model mouse (western-blotting); type: in vivo; conditions: midbrain total protein, GAPDH internal reference, gavage 21 consecutive days after MPTP modeling
Experimental: (§1) Neurotoxins can be used to establish PD animal models. Currently, 1-methyl-4-phenyl-1,2,3,6-tetrahydropyridine (MPTP) is the sole synthetic toxin which is recognized to induce PD symptoms in human and non-human primates and in mice. Using MPTP subacute modeling method, C57BL/6J male mice were intraperitoneally injected with MPTP 30 mg/kg, once a day for 5 consecutive days. The experiment animals were divided into blank control group, MPTP model group, and compound treatment group. For the […] compound treatment group, the compound was administrated by gavage for 21 consecutive days after the completion of modeling; for the MPTP model group, the normal saline was administrated by gavage for 21 consecutive days after the completion of modeling; and for the blank control group, the normal saline was first intraperitoneally injected for 5 days, and then administrated by gavage for 21 days.
Alpha-synuclein is an “unfolded protein” in its natural state. It exists in a monomeric form, and participates in the physiological functions such as the release of neurotransmitters, the establishment of synaptic junctions, and the regulation of synaptic plasticity. Under pathological conditions, more than 90% of alpha-synuclein is phosphorylated at serine of position 129 and converted into phosphorylated alpha-synuclein (p-α-s), thereby forming Lewy bodies. The formation of Lewy bodies is one of the main pathological manifestations and pathological mechanisms for Parkinson's disease, and plays an important role in the formation and development of PD. The detection of the p-α-s expression in the midbrain and substantia nigra of PD model mice can evaluate the neuroprotective activity of the compound.
Half of experiment mice in each group were taken to extract the total midbrain protein, and the change in the midbrain P-α-s protein expression was determined by western-blotting using GAPDH as the internal reference. The experiment included blank control group, MPTP model group, positive control group (caffeic acid phenethyl ester, CAPE), prototype control group (styryl sulfone compounds 3B, 3C, 3D, and 3G, whose structures are shown as above), and target compound group.

midbrain pp38 = assay: Midbrain pp38 protein expression in MPTP Parkinson's disease model mouse (western-blotting); type: in vivo; conditions: midbrain total protein, GAPDH internal reference, gavage 21 days after MPTP modeling
Experimental: as §1
The p38 mitogen-activated protein kinase (p38 MAPK) is expressed in both neurons and glial cells, and is the intersection point of neuron-glial cell network information regulations. The activation of p38 signaling pathway is an important initiator of neuronal degeneration, which continuously induces the apoptosis of dopaminergic neurons in multiple ways. It has become a research hotspot for the treatment of PD. Studies have shown that the protective mechanism of CAPE against the death of primary cultured cerebellar granule neurons induced by glutamate lies in inhibiting the activation of p38 phosphorylation and in turn inhibiting the activation of the caspase 3 apoptotic pathway to prevent neuronal apoptosis. Therefore, the MPTP-induced PD mouse model can be used to investigate the inhibitory effect of the target compounds on the activation of p38 phosphorylation on the overall animal level.
Half of experiment mice in each group were taken to extract the total midbrain protein, and the change in the midbrain phosphorylated p38 protein expression was determined by western-blotting using GAPDH as the internal reference. The experiment included blank control group, MPTP model group, positive control group (caffeic acid phenethyl ester, CAPE), prototype control group (styryl sulfone compounds 3B, 3C, 3D, and 3G, whose structures are shown as above), and target compound group.

midbrain CD11b = assay: Midbrain CD11b protein expression in MPTP Parkinson's disease model mouse (western-blotting); type: in vivo; conditions: for Expression (CD11b/GAPDH): midbrain, MPTP Parkinson's disease model mouse, western-blotting
Experimental: as §1
(§2) Neuron-glial cell network homeostasis disorder is an important factor for the selective and progressive death of substantia nigra dopaminergic neurons in PD. In the neurotoxic effect of MPTP, the excessive activations of microglial cells and astrocytes produce a variety of inflammatory cytokines and reactive oxygen species (ROS). These inflammatory factors and ROS amplify their respective toxicities and mediate malignant feedback loop, causing a cascade inflammation response and aggravating the pathological process of PD. CD11b and GFAP are the marker proteins for activations of microglial cells and astrocytes, respectively. Therefore, the effect of the target compounds on the activations of the microglial cells and astrocytes in the substantia nigra, hippocampus, and midbrain areas of MPTP-induced PD mice can be investigated, to explore the mechanism of the anti-PD effect of the target compounds by inhibiting the neuroinflammation.
[…] The experiment included blank control group, MPTP model group, positive control group (caffeic acid phenethyl ester, CAPE), prototype control group (styryl sulfone compounds 3B, 3C, 3D), and 3G, whose structures are shown as above), and target compound group.

hippocampus GFAP = assay: Number of hippocampus astrocytes with GFAP positive expression in MPTP Parkinson's disease model mouse (immunohistochemistry); type: in vivo; conditions: for Positive cell number (astrocytes with GFAP positive expression): hippocampus, MPTP Parkinson's disease model mouse, immunohistochemistry
Experimental: as §1, §2
Half of experiment mice in each group were taken to separate the midbrain after perfusion and fixation. The tissue was trimmed, and the hippocampus area was taken to prepare paraffin sections. The GFAP immunohistochemical staining was performed for the statistics of the change in the number of astrocytes with GFAP positive expression. The experiment included blank control group, MPTP model group, positive control group (caffeic acid phenethyl ester, CAPE), prototype control group (styryl sulfone compounds 3B, 3C, 3D, and 3G, whose structures are shown as above), and target compound group.

Row | Structure (SMILES) | inhibition at 2 µM (primary glial cells) | inhibition at 5 µM (primary glial cells) | inhibition at 10 µM (primary glial cells) | Expression (p-α-s/GAPDH) (midbrain p-α-s) | Expression (pp38/GAPDH) (midbrain pp38) | Expression (CD11b/GAPDH) (midbrain CD11b) | Positive cell number (astrocytes with GFAP positive expression) (hippocampus GFAP) | inhibition at 5 µM (primary glial cells; 5 μM) | inhibition at 10 µM (primary glial cells; 10 μM) | inhibition at 20 µM (primary glial cells; 20 μM) | NO inhibitory rate compared with the styryl sulfone prototype compounds (primary glial cells) | midbrain CD11b protein expression compared with the styryl sulfone prototype compounds (midbrain CD11b) | number of hippocampus astrocytes with GFAP positive expression compared with the styryl sulfone prototype compounds (hippocampus GFAP) | inhibition at 20 µM (primary glial cells)
1 | COCCN(C)C(=O)Oc1cc(/C=C/S(=O)(=O)CCc2cccc(-c3ccc(C)o3)c2)ccc1OC(C)=O [Compound J1-4, (E)-2-[N-(2-methoxyethyl)-N-methylcarbamoyloxy]-4-{2-[3-(5-methylfur-2-yl)phenylethylsulfonyl]ethenyl}phenyl acetate] | 24.8 ± 5.02% | 40.9 ± 3.94% | 69.7 ± 5.85% | 0.47 ± 0.11 | 0.41 ± 0.08 | 0.75 ± 0.06 | 79 ± 2 | – | – | – | – | – | – | –
2 | CN(C)c1ccc(CC(=O)Oc2cc(/C=C/S(=O)(=O)C(Br)c3ccc(Cc4ccc(N(C)C)cc4)cc3)ccc2OC(=O)N2CCCC2C(F)(F)F)cc1 (stereo not shown) [Compound M1-5] | – | – | – | 0.24 ± 0.05 | 0.29 ± 0.06 | 0.83 ± 0.07 | 67 ± 6 | 21.2 ± 3.12% | 45.6 ± 4.28% | 66.7 ± 4.02% | – | – | – | –
3 | CCN(CC)C(=O)Oc1ccc(/C=C/S(=O)(=O)Cc2ccc(C(F)(F)F)cc2)cc1OC(=O)N(CC)CC [Compound B1-1, (E)-4-{2-[(4-trifluoromethylphenyl)mesyl]ethenyl}-1,2-phenylenebis(diethylcarbamate)] | – | – | – | 0.23 ± 0.12 | 0.37 ± 0.12 | 0.41 ± 0.05 | 64 ± 4 | 21.6 ± 2.18% | 42.8 ± 3.56% | 97.7 ± 2.04% | equivalent or higher inhibitory rate | equivalent or lower | significantly lower | –
4 | COc1cc(/C=C/S(=O)(=O)Cc2cc(OC)c(OC)c(OC)c2)ccc1OC(=O)N(c1ccccc1)c1ccccc1 [Compound K3-3, (E)-2-methoxy-4-{2-[(3,4,5-trimethoxyphenyl)mesyl]ethenyl}-phenyl-N,N-diphenylcarbamate] | – | – | – | 0.62 ± 0.11 | 0.55 ± 0.08 | 1.15 ± 0.07 | 69 ± 3 | 17.6 ± 3.24% | 40.6 ± 3.11% | 72.5 ± 6.08% | – | – | – | –
5 | CC[Si](CC)(Oc1ccc(C(Cl)S(=O)(=O)/C=C/c2ccc(OC(=O)N3CC(C)OC(C)C3)c(OC(=O)c3cccc(Cl)c3OC)c2)cc1)c1ccccc1 (stereo not shown) [Compound R1-5, (E)-4-{2-[4-(diethylphenylsiloxy)phenylchloromesyl]ethenyl}-2-(3-chloro-2-methoxybenzoyloxy)phenyl-2,6-dimethylmorpholine-4-carboxylate] | – | – | – | 0.46 ± 0.11 | 0.44 ± 0.07 | 1.25 ± 0.08 | 80 ± 2 | 23.8 ± 4.32% | 48.5 ± 3.68% | 73.6 ± 3.92% | – | – | – | –
6 | Cc1ccc(S(=O)(=O)Oc2ccc(CS(=O)(=O)/C=C/c3ccc(OS(=O)(=O)c4ccc(C)cc4)c(OC(=O)N(C)S(=O)(=O)c4ccc(C)cc4)c3)cc2)cc1 [Compound S6-6, (E)-2-(N-methyl-N-p-tosylcarbamoyloxy)-4-{2-[(4-p-tosyloxyphenyl)mesyl]ethenyl}phenyl p-toluenesulfonate] | – | 30.2 ± 2.97% | 59.2 ± 3.49% | 0.28 ± 0.06 | 0.27 ± 0.05 | 0.62 ± 0.04 | 58 ± 2 | – | – | – | – | – | – | 85.1 ± 4.41%
7 | Cc1ccc(N2CCN(C(=O)Oc3ccc(/C=C/S(=O)(=O)CCCC(c4ccc(OC(=O)CN(C)C)cc4)N(C)C)cc3OC(=O)N(C)c3ccccc3)CC2)cc1 (stereo not shown) [Compound P1-1, (E)-4-{2-[4-(dimethylamino)-4-(4-(N,N-dimethylglycyloxy)phenyl)butylsulfonyl]ethenyl}-2-(N-methyl-N-phenylcarbamoyloxy)phenyl-4-(p-methylphenyl)piperazine-1-carboxylate] | 25.9 ± 3.54% | 40 ± 2.66% | 78.4 ± 3.96% | 0.48 ± 0.12 | 0.50 ± 0.09 | 0.70 ± 0.06 | 72 ± 3 | – | – | – | – | – | – | –
